Data on three compounds can be found in patent publication EP1459760A9, “Immunopotentiating inosine monophosphate 5'-nucleotidase resistant derivatives and uses thereof” (UNIVERSITY OF SOUTH FLORIDA, priority 1995, dated 1996).

The subject of one data set is 5'-nucleotidase. The experiment in a line: Percent hydrolysis by 5'-nucleotidase, further set of experiments. To be noted: 20 minutes, 200 µl. The data set is classed as biochemical, Crotalus atrox.
Data set [1] has as its system 5'-nucleotidase (from Crotalus atrox venom). The data set is classed as biochemical.
The conditions of data set [2]: in vivo; cited from earlier work.
The next data set relates to influenza virus. The arrangement: species or system NMRI mice. As to conditions: mouse, in vivo.

In the case of `Nc1ncnc2c1ncn2[C@@H]1O[C@H](COP(=O)(O)O)[C@@H](O)[C@H]1O` [Adenosine MP, adenosine-5'-monophosphate], the “Percent hydrolysis by 5'-nucleotidase” value came to 100.0% in the data set on 5'-nucleotidase (Assay 1), 95.1% with 5'-nucleotidase (Assay 2) and 63.7% in the data set on 5'-nucleotidase (Assay 3). Besides, the “Hydrolysis (%)” value in data set [1] worked out at 86.0%.
As for isoprinosine, the half-life entry in data set [2] was “less than four”.
Regarding `CC(C)CCCC(C)CCCC(C)CCCCC(C)CCCC(C)CCCC(C)C` (stereo not drawn) [Squalane], the “effect on survivors and MST” value with influenza virus is listed as “no effect”.
